Source: EP0408749A1, “DERIVATIVES OF 3,18-DIHYDROXY-9,13-EPOXYLABDANE, METHOD OF OBTAINING THEM AND A HEMOSTATIC PHARMACEUTICAL PREPARATION BASED THEREON” (TASHKENTSKY GOSUDARSTVENNY UNIVERSITET IMENI V.I. LENINA, priority 1988, dated 1990)
Structures can show the parent of a compound that is named as a salt.

Assays:
[1] = tested on: blood coagulation system; experiment: Comparative clinical study of hemostatic effect against dicynone; assay type: in vivo; settings: twenty post-operation patients, 20 minutes after introduction, p < 0.05
Description: The pharmaceutical preparation according to the present invention and dicynone were subjected to a comparative study for their hemostatic effect. Twenty post-operation patients (cardiorevivification department). The preparations were administered in the amount of […]. For the determination of the hemostatic effect determined by the functional state of the blood coagulation system the following characteristics were studied: thromboelastogram, the time of recalcification of citrate plasma and the plasma tolerance towards heparin. 20 minutes after the introduction of dicynone the parameter of the time of reaction of the rate of formation of thromboplastin was decreased by 32%, after administration of the preparation according to the present invention - by 75%, the time of coagulation was reduced, respectively, by 2'1 and 43%, t,ie time of recalcification of plasma decreased by 43 and 61% respectively, tolerance of plasma to heparin increased by 36 and 52%, respectively (at an error of p < 0.05).

[2] = tested on: blood coagulation; experiment: Blood coagulation in dogs after hypodermal administration of a 20% oily solution; assay type: in vivo; settings: 50 mg/kg hypodermally; for Time of blood coagulation / Fibrinolytic activity of blood / Time of plasma recalcification / Tolerance of plasma to heparin / Fibrinogen: mean M; for Time of blood coagulation: prior 318.0; for Fibrinolytic activity of blood: prior 41.0; for Time of plasma recalcification: prior 106.0; for Tolerance of plasma to heparin: prior 214.0; for Fibrinogen: prior 435.0
Description: (§1) The pharmacological studies of the hemostatic activity of the compounds according to the present invention was conducted in vivo and in vitro with the use of biochemical tests and by means of a thromboelasto- graph.
[…] For the cuvette of the thromboelasto- graph the blood was taken in the amount of 0.36 ml, while for biochemical tests -up to 10 ml (as the con- servant use was made of a 1.34% solution of sodium oxalate which was added in the ratio of 1:9).
The compound according to the invention , viz. ? 3,18-dihydroxy-9,13-epoxylabdan-15-16-olide was administered to dogs (a group of 5 animals) in the dose of 50 mg/kg of the animal's bodymass hypodermally as a 20% oily solution.

[3] = tested on: mice; experiment: LD50, subcutaneous 20% oily solution; assay type: in vivo; settings: subcutaneously (hypodermal)
Description: The LD50 was determined on mice (a group of 30 animals with. a bodymass of 20-21 g). The mice were administered with 3,18-dihydroxy-9,13-epoxylabdan-15,16-olide subcutaneously (a 20% oily solution). In the case of this manner of administration (i.e. hypodermal one) the LD50 was equal to more than 2,000 mg/kg of the animal's bodymass.

[4] = tested on: hemostatic effect; settings: after administration to patients; cited from earlier work
[5] = tested on: rats, dogs; settings: in vivo
[6] = tested on: thrombocytes; experiment: Effect on thrombocytes
Source text: Furthermore, the compound according to the present invention increases the number of thrombocytes and activates adhesion and aggregation of thrombocytes.

[7] = tested on: blood coagulation system; experiment: Biochemical tests of the blood coagulation system in dogs, intravenous; assay type: in vivo; settings: dog, 25 mg/kg intravenously; for Time of blood coagulation / Tolerance of the plasma to heparin / Trombin time / Time of plasma recalcification: mean M; for Time of blood coagulation: 10 animals, initial 5.1; for Tolerance of the plasma to heparin: initial 6.8; for Trombin time: initial 17.0; for Time of plasma recalcification: initial 117.0
Description: as §1
(§2) The blood for examination was taken from an opened dog's thigh vein prior to administration of the compound and 10, 30, 60, 90 and 120 min thereafter. For the cuvette of the thromboelasto- graph the blood was taken in the amount of 0.36 ml, while for biochemical tests -up to 10 ml (as the con- servant use was made of a 1.34% solution of sodium oxalate which was added in the ratio of 1:9).
In another series of experiments the effect of the compound according to the present invention was studied in biochemical tests.

[8] = tested on: blood coagulation; experiment: Thromboelastogram in dogs after administration of the compound; assay type: in vivo; settings: dog, 25 mg/kg; for Time of reaction of blood coagulation, R / Time of the clot formation K: arithmetic mean M; for Time of reaction of blood coagulation, R: 10 animals, initial 23.0; for Time of the clot formation K: initial 20.0
Description: as §1, §2
The next series of experiments - administration of the compound according to the present invention in the dose of 25 mg/kg of the animals' bodymass.

[9] = tested on: heparin; experiment: Effect on heparin
[10] = tested on: blood coagulation; experiment: Thromboelastogram in vitro; assay type: biochemical; settings: for Time of the reaction of blood coagulation, R / Coagulation index, C: in vitro, experiment (O)
Description: as §1
The effect of the compound according to the present invention , viz. 3,1,18-trihydroxy-9,13-epofil- abdan-15-ic acid sodium salt trihydrate on hemostasis was studied in vitro with the use of a thromboelastogram.

[11] = tested on: white non-descipt mice; experiment: Acute toxicity, intraperitoneal; assay type: in vivo
Description: The compound according to the present invention, i.e. 3,16,18-trihydroxy-3,13-epoxylabdan-15-ic acid sodium salt trihydrate was tested for an acute toxicity.

[12] = tested on: blood coagulation; experiment: Thromboelastogram in dogs after administration of the compound; assay type: in vivo; settings: 10 mg/kg
[13] = tested on: local blood hemorrhage; experiment: Local blood hemorrhage, local application; assay type: in vivo; settings: local effect, concentration of 0.5%
Source text: The study of the effect provided by the compound according to the present invention on the local blood hemorrhage has shown that the local effect of the compound in tne concentration of 0.5% lowers the flood loss by 83% and the hemorrhage duration is reduced by 60%.

[14] = 30 minutes after administration
[15] = 60 minutes after administration
[16] = 90 minutes after administration
[17] = 120 minutes after administration

Compound: O=S(=O)(O)c1cc(O)ccc1O [dicynone, 2,5-dihydroxybenzenesulphonate-j-diethylammonium salt]
- time of recalcification of plasma decreased by [1]: 43%
- tolerance of plasma to heparin increased by [1]: 36%
- time of reaction of the rate of formation of thromboplastin decreased by ([1]; amount of 75 g as printed): 32%

Compound: 3,18-dihydroxy-9,13-epoxylabdan-15,16-olide
- blood coagulation time decreases by ([2]; 20% oily solution): 51%
- time of recalcification decreases by ([2]; 20% oily solution): 32%
- tolerance of the plasma to heparin was increased by ([2]; 20% oily solution): 37%
- Time of blood coagulation ([2]; 20% oily solution, 60 min after administration): 269.0 s
- Time of blood coagulation ([2]; 20% oily solution, 120 min after administration): 218.0 s
- Time of blood coagulation ([2]; 20% oily solution, 180 min after administration): 159.0 s
- Fibrinolytic activity of blood ([2]; 60 min after administration): 53.0%
- Time of plasma recalcification ([2]; 60 min after administration): 102.0 s
- Tolerance of plasma to heparin ([2]; 60 min after administration): 192.0 s
- Fibrinogen ([2]; 60 min after administration): 387.0 mg%
- Fibrinolytic activity of blood ([2]; 120 min after administration): 54.0%
- Time of plasma recalcification ([2]; 120 min after administration): 84.0 s
- Tolerance of plasma to heparin ([2]; 120 min after administration): 138.0 s
- Fibrinogen ([2]; 120 min after administration): 361.0 mg%
- Fibrinolytic activity of blood ([2]; 180 min after administration): 43.0%
- Time of plasma recalcification ([2]; 180 min after administration): 72.0 s
- Tolerance of plasma to heparin ([2]; 180 min after administration): 135.0 s
- Fibrinogen ([2]; 180 min after administration): 293.0 mg%
- LD50 [3]: more than 2,000 mg/kg of the animal's bodymass

Compound: CC1(S(=O)(=O)[O-])CC(=O)c2ccccc2C1=O.[Na+] (stereo not drawn) [sodium 2,3-dihydro-2-methyl-1,4-naphthoquinone-2-sulphonate]
- hemostatic effect is noted within [4]: 12 to 18 h

Compound: 3,16,18-trihydroxy-9,13-epoxylabdan-15-ic acid sodium salt trihydrate
- local irritation effect [5]: neither provided any local irritation effect
- adhesion and aggregation of thrombocytes [6]: activates
- number of thrombocytes [6]: increases
- blood coagulation time is shortened by [7]: 35-40%
- thrombin time is reduced by [7]: 30-35%
- time of plasma recalcification shortened by [7]: 33-39%
- tolerance of plasma to heparin is increased by [7]: 30-40%
- Time of blood coagulation [7, 14]: 3.9 min
- Time of blood coagulation [7, 15]: 3.7 min
- Time of blood coagulation [7, 16]: 3.0 min
- Time of blood coagulation [7, 17]: 3.4 min
- Tolerance of the plasma to heparin [7, 14]: 4,8 min
- Trombin time [7, 14]: 12.0 s
- Time of plasma recalcification [7, 14]: 78.0 s
- Tolerance of the plasma to heparin [7, 15]: 4.6 min
- Trombin time [7, 15]: 12.0 s
- Time of plasma recalcification [7, 15]: 79.0 s
- Tolerance of the plasma to heparin [7, 16]: 4.3 min
- Trombin time [7, 16]: 11.0 s
- Time of plasma recalcification [7, 16]: 74.0 s
- Tolerance of the plasma to heparin [7, 17]: 4.1 min
- Trombin time [7, 17]: 11.0 s
- Time of plasma recalcification [7, 17]: 71.0 s
- coagulation time K is reduced by [8]: 40-55%
- factor C (coagulation index) increased by [8]: 71-133%
- Time of reaction of blood coagulation, R ([8]; column 2 (30 min by the note to Table 3)): 10.0 mm
- Time of reaction of blood coagulation, R ([8]; column 3 (60 min by the note to Table 3)): 12.0 mm
- Time of reaction of blood coagulation, R ([8]; column 4 (90 min by the note to Table 3)): 9.0 mm
- Time of reaction of blood coagulation, R ([8]; column 5 (120 min by the note to Table 3)): 11.0 mm
- Time of the clot formation K ([8]; fifth value column (120 min by the note to Table 3)): 9.0 mm
- Time of the clot formation K ([8]; fourth value column (90 min by the note to Table 3)): 10.0 mm
- Time of the clot formation K ([8]; second value column (30 min by the note to Table 3)): 12.0 mm
- Time of the clot formation K ([8]; third value column (60 min by the note to Table 3)): 11.0 mm
- effect on heparin [9]: did not prevent the effect of heparin but weakened it
- Time of the reaction of blood coagulation, R ([10]; 0.01 mg, control 26.0): 7.0 mm
- Time of the reaction of blood coagulation, R ([10]; 0.1 mg, control 11.0): 8.0 mm
- Coagulation index, C ([10]; 0.1 mg, control 19.6): 20.8 mm
- Coagulation index, C ([10]; 1 mg, control 23.0): 8.0 mm
- Time of the reaction of blood coagulation, R ([10]; 5 mg, control 18.0): 32.0 mm
- Coagulation index, C ([10]; 5 mg, control 19.0): 3.4 mm
- parameter R (the time of reaction of blood coagulation) ([10]; in vitro, 0.01, 0.1, 0.2 and 1.0 mg per 0.26 ml of blood): substantially reduces
- LD50 ([11]; intraperitoneal administration): over 2,000 mg/kg of the animal's bodymass
- death of the animals ([11]; intraperitoneal, 1,000 and 2,000 mg/kg): no death
- process of blood coagulation [12]: promoted
- hemorrhage duration is reduced by [13]: 60%
- lowers the flood loss by [13]: 83%
